Data as given in patent US20040156869A1, “2-substituted quinazolin-4-ylamine analogues” (Neurogen Corporation, priority 2002, published 2004).

Biological target: human capsaicin receptor (VR1) (Homo sapiens, UniProt Q8NER1)
Experiment: Capsaicin receptor binding assay ([3H]RTX competition, VR1-transfected HEK293 membranes)

human capsaicin receptor (VR1), sequence (Q8NER1 whole entry): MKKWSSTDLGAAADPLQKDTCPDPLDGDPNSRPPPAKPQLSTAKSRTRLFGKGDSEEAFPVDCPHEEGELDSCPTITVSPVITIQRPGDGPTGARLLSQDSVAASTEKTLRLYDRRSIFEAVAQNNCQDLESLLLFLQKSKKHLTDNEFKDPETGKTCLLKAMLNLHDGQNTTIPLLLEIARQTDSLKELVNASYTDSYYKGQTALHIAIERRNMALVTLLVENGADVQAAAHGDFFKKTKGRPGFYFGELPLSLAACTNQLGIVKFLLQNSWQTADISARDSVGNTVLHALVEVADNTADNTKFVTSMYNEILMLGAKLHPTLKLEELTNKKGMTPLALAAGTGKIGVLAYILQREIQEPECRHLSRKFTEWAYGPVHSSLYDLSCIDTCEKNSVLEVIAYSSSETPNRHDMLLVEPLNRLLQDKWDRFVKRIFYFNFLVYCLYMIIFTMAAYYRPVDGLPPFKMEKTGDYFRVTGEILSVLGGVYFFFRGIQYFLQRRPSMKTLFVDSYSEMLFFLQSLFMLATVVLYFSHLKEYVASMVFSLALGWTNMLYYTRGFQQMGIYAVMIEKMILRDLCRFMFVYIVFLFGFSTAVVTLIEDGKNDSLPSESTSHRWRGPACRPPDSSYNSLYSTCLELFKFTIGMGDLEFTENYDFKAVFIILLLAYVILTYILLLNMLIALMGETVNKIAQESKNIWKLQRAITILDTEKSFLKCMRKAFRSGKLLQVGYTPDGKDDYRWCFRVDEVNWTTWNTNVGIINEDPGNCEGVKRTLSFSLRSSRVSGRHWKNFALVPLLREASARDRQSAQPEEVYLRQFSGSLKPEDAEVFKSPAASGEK

Ki, < 1000 nM:
C[C@H]1CN(Cc2nc(Nc3ccc(C(C)(C)C)nc3)c3ccc(-c4ncccc4C(F)(F)F)cc3n2)C[C@H](C)O1 [Compound 609, (S,S)-(6-tert-Butyl-pyridin-3-yl)-[2-(2,6-dimethyl-morpholin-4-ylmethyl)-7-(3-trifluoromethyl-pyridin-2-yl)-quinazolin-4-yl]-amine]
C[C@@H]1CN(Cc2nc(Nc3ccc(C(F)(F)F)nc3)c3ccc(-c4ncccc4Cl)cc3n2)C[C@@H](C)O1 [Compound 610, (R,R)-[7-(3-Chloro-pyridin-2-yl)-2-(2,6-dimethyl-morpholin-4-ylmethyl)-quinazolin-4-yl]-(6-trifluoromethyl-pyridin-3-yl)-amine]
C[C@@H]1CN(Cc2nc(Nc3ccc(C(C)(C)C)nc3)c3ccc(-c4ncccc4C(F)(F)F)cc3n2)C[C@@H](C)O1 [Compound 611, (R,R)-(6-tert-Butyl-pyridin-3-yl)-[2-(2,6-dimethyl-morpholin-4-ylmethyl)-7-(3-trifluoromethyl-pyridin-2-yl)-quinazolin-4-yl]-amine]
C[C@@H]1CN(Cc2nc(Nc3ccc(C(F)(F)F)cc3)c3cnc(-c4ccccc4C(F)(F)F)cc3n2)C[C@H](C)O1 [Compound 612, [2-(2,6-Dimethyl-morpholin-4-ylmethyl)-7-(2-trifluoromethyl-phenyl)-pyrido[4,3-d]pyrimidin-4-yl]-(4-trifluoromethyl-phenyl)-amine (cis)]
CC(C)c1ccc(Nc2nc(CN3C[C@@H](C)O[C@@H](C)C3)nc3cc(-c4ncccc4C(F)(F)F)cnc23)cc1 [Compound 613, [2-(2,6-Dimethyl-morpholin-4-ylmethyl)-7-(3-trifluoromethyl-pyridin-2-yl)-pyrido[3,2-d]pyrimidin-4-yl]-(4-isopropyl-phenyl)-amine (cis)]
C[C@@H]1CN(Cc2nc(Nc3ccc(C(C)(C)C)cc3)c3cnc(-c4ccccc4C(F)(F)F)cc3n2)C[C@H](C)O1 [Compound 614, (4-tert-Butyl-phenyl)-[2-(2,6-dimethyl-morpholin-4-ylmethyl)-7-(2-trifluoromethyl-phenyl)-pyrido[4,3-d]pyrimidin-4-yl]-amine (cis)]
C[C@@H]1CN(Cc2nc(Nc3ccc(C(F)(F)F)cc3)c3ncc(-c4ncccc4Cl)cc3n2)C[C@H](C)O1 [Compound 615, [7-(3-Chloro-pyridin-2-yl)-2-(2,6-dimethyl-morpholin-4-ylmethyl)-pyrido[3,2-d]pyrimidin-4-yl]-(4-trifluoromethyl-phenyl)-amine (cis)]
C[C@@H]1CN(Cc2nc(Nc3ccc(C(F)(F)F)nc3)c3ncc(-c4ncccc4Cl)cc3n2)C[C@H](C)O1 [Compound 616, [7-(3-Chloro-pyridin-2-yl)-2-(2,6-dimethyl-morpholin-4-ylmethyl)-pyrido[3,2-d]pyrimidin-4-yl]-(6-trifluoromethyl-pyridin-3-yl)-amine (cis)]
C[C@@H]1CN(Cc2nc(Nc3ccc(S(=O)(=O)C(F)(F)F)cc3)c3ncc(-c4ncccc4Cl)cc3n2)C[C@H](C)O1 [Compound 617, [7-(3-Chloro-pyridin-2-yl)-2-(2,6-dimethyl-morpholin-4-ylmethyl)-pyrido[3,2-d]pyrimidin-4-yl]-(4-trifluoromethanesulfonyl-phenyl)-amine (cis)]
Cc1cccnc1-c1ccc2c(Nc3ccc(C(F)(F)F)cc3)nc(CN3C[C@@H](C)O[C@@H](C)C3)nc2c1 [Compound 618, [2-(2,6-Dimethyl-morpholin-4-ylmethyl)-7-(3-methyl-pyridin-2-yl)-quinazolin-4-yl]-(4-trifluoromethyl-phenyl)-amine (cis)]
C[C@@H]1CN(Cc2nc(Nc3ccc(C(F)(F)F)cc3)c3ccc(-c4ccccn4)cc3n2)C[C@H](C)O1 [Compound 619, [2-(2,6-Dimethyl-morpholin-4-ylmethyl)-7-pyridin-2-yl-quinazolin-4-yl]-(4-trifluoromethyl-phenyl)-amine (cis)]
C[C@@H]1CN(Cc2nc(Nc3ccc(C(F)(F)F)cc3)c3ccc(-c4ccccc4C(F)(F)F)cc3n2)C[C@H](C)O1 [Compound 620, [2-(2,6-Dimethyl-morpholin-4-ylmethyl)-7-(2-trifluoromethyl-phenyl)-quinazolin-4-yl]-(4-trifluoromethyl-phenyl)-amine (cis)]
C[C@@H]1CN(Cc2nc(Nc3ccc(C(C)(C)C)cc3)c3ccc(-c4ncccc4Cl)cc3n2)C[C@@H](C)O1 [Compound 621, (R,R)-(4-tert-Butyl-phenyl)-[7-(3-chloro-pyridin-2-yl)-2-(2,6-dimethyl-morpholin-4-ylmethyl)-quinazolin-4-yl]-amine]
C[C@@H]1CN(Cc2nc(Nc3ccc(F)cc3)c3ccc(-c4ncccc4Cl)cc3n2)C[C@@H](C)O1 [Compound 622, (R,R)-(4-Fluoro-phenyl)-[7-(3-chloro-pyridin-2-yl)-2-(2,6-dimethyl-morpholin-4-ylmethyl)-quinazolin-4-yl]-amine]
CC(=O)c1ccc(Nc2nc(CN3C[C@@H](C)O[C@H](C)C3)nc3cc(-c4ncccc4Cl)ccc23)cc1 [Compound 623, (R,R)-1-{4-[7-(3-Chloro-pyridin-2-yl)-2-(2,6-dimethyl-morpholin-4-ylmethyl)-quinazolin-4-ylamino]-phenyl}-ethanone]
C[C@@H]1CN(Cc2nc(Nc3ccc(Cl)cc3)c3ccc(-c4ncccc4Cl)cc3n2)C[C@@H](C)O1 [Compound 624, (R,R)-(4-Chloro-phenyl)-[7-(3-chloro-pyridin-2-yl)-2-(2,6-dimethyl-morpholin-4-ylmethyl)-quinazolin-4-yl]-amine]
CC(C)c1ccc(Nc2nc(CN3C[C@@H](C)O[C@H](C)C3)nc3cc(-c4ncccc4Cl)ccc23)cc1 [Compound 625, (R,R)-(4-Isopropyl-phenyl)-[7-(3-chloro-pyridin-2-yl)-2-(2,6-dimethyl-morpholin-4-ylmethyl)-quinazolin-4-yl]-amine]
CCc1ccc(Nc2nc(CN3C[C@@H](C)O[C@H](C)C3)nc3cc(-c4ncccc4Cl)ccc23)cc1 [Compound 626, (R,R)-(4-Ethyl-phenyl)-[7-(3-chloro-pyridin-2-yl)-2-(2,6-dimethyl-morpholin-4-ylmethyl)-quinazolin-4-yl]-amine]
CCN1CCN(Cc2nc(Nc3ccc(C(F)(F)F)cc3)c3ccc(-c4ncccc4C(F)(F)F)cc3n2)CC1 [Compound 628, [2-(4-Ethyl-piperazin-1-ylmethyl)-7-(3-trifluoromethyl-pyridin-2-yl)-quinazolin-4-yl]-(4-trifluoromethyl-phenyl)-amine]
CC(C)Oc1ccc(Nc2nc(CN3C[C@@H](C)O[C@H](C)C3)nc3cc(-c4ncccc4Cl)ccc23)cn1 [Compound 629, (R,R)-[7-(3-Chloro-pyridin-2-yl)-2-(2,6-dimethyl-morpholin-4-ylmethyl)-quinazolin-4-yl]-(6-isopropoxy-pyridin-3-yl)-amine]
C[C@@H]1CN(Cc2nc(Nc3ccc(C#N)cc3)c3ccc(-c4ncccc4Cl)cc3n2)C[C@@H](C)O1 [Compound 630, (R,R)-4-[7-(3-Chloro-pyridin-2-yl)-2-(2,6-dimethyl-morpholin-4-ylmethyl)-quinazolin-4-ylamino]-benzonitrile]
CC(C)S(=O)(=O)c1ccc(Nc2nc(CN3C[C@@H](C)O[C@H](C)C3)nc3cc(-c4ncccc4Cl)ccc23)cc1 [Compound 631, (R,R)-[7-(3-Chloro-pyridin-2-yl)-2-(2,6-dimethyl-morpholin-4-ylmethyl)-quinazolin-4-yl]-[4-(propane-2-sulfonyl)-phenyl]-amine]
C[C@@H]1CN(Cc2nc(Nc3ccc(C(C)(C)C)nc3)c3ncc(-c4ncccc4Cl)cc3n2)C[C@H](C)O1 [Compound 632, (6-tert-Butyl-pyridin-3-yl)-[7-(3-chloro-pyridin-2-yl)-2-(2,6-dimethyl-morpholin-4-ylmethyl)-pyrido[3,2-d]pyrimidin-4-yl]-amine (cis)]
C[C@@H]1CN(Cc2nc(Nc3ccc(C(C)(C)C)cc3)c3ncc(-c4ncccc4Cl)cc3n2)C[C@H](C)O1 [Compound 633, (4-tert-Butyl-phenyl)-[7-(3-chloro-pyridin-2-yl)-2-(2,6-dimethyl-morpholin-4-ylmethyl)-pyrido[3,2-d]pyrimidin-4-yl]-amine (cis)]
CC1CN(Cc2nc(Nc3ccc(C(F)(F)F)cc3)c3ccc(-c4ncccc4Cl)cc3n2)CC(C)N1 (stereo not drawn) [Compound 634, [7-(3-Chloro-pyridin-2-yl)-2-(3,5-dimethyl-piperazin-1-ylmethyl)-quinazolin-4-yl]-(4-trifluoromethyl-phenyl)-amine]
Cc1cccnc1-c1ccc2c(Nc3ccc(C(C)(C)C)cc3)nc(CN3C[C@@H](C)O[C@@H](C)C3)nc2c1 [Compound 635, (4-tert-Butyl-phenyl)-[2-(2,6-dimethyl-morpholin-4-ylmethyl)-7-(3-methyl-pyridin-2-yl)-quinazolin-4-yl]-amine (cis)]
C[C@@H]1CN(Cc2nc(Nc3ccc(C(C)(C)C)cc3)c3ccc(-c4ccccn4)cc3n2)C[C@H](C)O1 [Compound 636, (4-tert-Butyl-phenyl)-[2-(2,6-dimethyl-morpholin-4-ylmethyl)-7-pyridin-2-yl-quinazolin-4-yl]-amine (cis)]
Cc1cccc(-c2ccc3c(Nc4ccc(C(C)(C)C)cc4)nc(CN4C[C@@H](C)O[C@@H](C)C4)nc3c2)n1 [Compound 637, (4-tert-Butyl-phenyl)-[2-(2,6-dimethyl-morpholin-4-ylmethyl)-7-(6-methyl-pyridin-2-yl)-quinazolin-4-yl]amine (cis)]
COc1ccccc1-c1ccc2c(Nc3ccc(C(F)(F)F)cc3)nc(CN3C[C@@H](C)O[C@@H](C)C3)nc2c1 [Compound 638, [2-(2,6-Dimethyl-morpholin-4-ylmethyl)-7-(2-methoxy-phenyl)-quinazolin-4-yl]-(4-trifluoromethyl-phenyl)-amine (cis)]
CC(=O)c1ccccc1-c1ccc2c(Nc3ccc(C(F)(F)F)cc3)nc(CN3C[C@@H](C)O[C@@H](C)C3)nc2c1 [Compound 639, 1-{2-[2-(2,6-Dimethyl-morpholin-4-ylmethyl)-4-(4-trifluoromethyl-phenylamino)-quinazolin-7-yl]-phenyl}-ethanone (cis)]
